pIC50: −log10 of the molar value.
Assays:
Type in all cases: cell-based, human
HiBiT-tagged MYB protein = test: HiBiT protein abundance assay, MYB (K562 HiBiT knock-in); conditions: HiBiT knock-in cells, 24 hours
Outline: (§1)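 Endogenously HiBiT-tagged K562 knock-in lines treated 24 h at 37 °C with 10-point 3-fold dilutions (top 10 μM final, DMSO ≤0.25%) in IMDM+1% FBS. Lytic Nano-Glo luminescence normalized to DMSO and unmodified K562 controls; four-parameter fit gives 50%-abundance concentration (IC50).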

HiBiT-tagged HTT protein = test: HiBiT protein abundance assay, HTT (K562 HiBiT knock-in); conditions: HiBiT knock-in cells, 24 hours
Outline: as §1

Target C = test: HiBiT protein abundance assay, Target C (K562 HiBiT knock-in); conditions: HiBiT knock-in cells, 24 hours
Outline: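 K562 HiBiT knock-in cells (10000/well) in IMDM + 1% FBS were treated for 24 h at 37° C. with a 10-point 3-fold dilution series (top 10 μM final), with DMSO ≤0.25%. Unmodified K562 served as baseline. HiBiT lytic luminescence was normalized to controls, and IC50 was interpolated at 50% from a four-parameter fit.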

Target C mRNA = test: Splicing RT-qPCR panel, Target C canonical junction (CJ) mRNA; conditions: Homo sapiens, read-out: Target C CJ (decrease in CJ mRNA levels, IC50)
Outline: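 A673 cells (DMEM, 10% FBS) or K562 cells (IMDM, 10% FBS) treated 24 h at 37 °C with an 11-point 3-fold dilution, top 10 uM, DMSO ≤0.25%. Canonical-junction mRNA quantified in lysates by RT-qPCR, normalised to GAPDH, GUSB or PPIA and to DMSO (2^−ΔΔCt), then converted to % response.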

pIC50 (HiBiT-tagged MYB protein) | pIC50 (HiBiT-tagged HTT protein) | pIC50 (Target C) | pIC50 (Target C mRNA) | Compound
6.00 to 7.00 | 5.00 to 6.00 | 5.00 to 6.00 | 5.00 to 6.00 | Cn1cc2cc(-c3ccc4cc(N5CC[C@H](NC(C)(C)C)C5)cnc4n3)c(O)cc2n1 (single isomer, unassigned) [Compound 200]
> 7.00 | > 7.00 | > 7.00 | 6.00 to 7.00 | Cn1cc2cc(-c3cnc4cc(N5CC[C@H](NC6CC6)C5)ccc4n3)c(O)c(F)c2n1 [Compound 176, 5-[6-[(3S)-3-(cyclopropylamino)318quinoxaline-1-yl]318quinoxaline-2-yl]-7-fluoro-2-methyl-indazol-6-ol]
> 7.00 | > 7.00 | > 7.00 | > 7.00 | Cn1cc2cc(-c3cnc4cc(N5CC[C@@H](NC6CC6)C5)ccc4n3)c(O)c(F)c2n1 [Compound 177, 5-[6-[(3R)-3-(cyclopropylamino)318quinoxaline-1-yl]318quinoxaline-2-yl]-7-fluoro-2-methyl-indazol-6-ol]
6.00 to 7.00 | 6.00 to 7.00 | 6.00 to 7.00 | 6.00 to 7.00 | Cn1cc2cc(-c3cnc4nc(N5CCC(NC6CC6)C5)ccc4n3)c(O)c(F)c2n1 (stereo not shown) [Compound 178, 5-[6-[3-(cyclopropylamino)pyrrolidin-1-yl]pyrido[2,3-b]pyrazin-2-yl]-7-fluoro-2-methyl-indazol-6-ol]
> 7.00 | > 7.00 | > 7.00 | 6.00 to 7.00 | Cc1nc2c(C)c(O)c(-c3cnc4cc(N5CCC(NC6CC6)C5)ccc4n3)cc2o1 (stereo not shown) [Compound 182, 6-[6-[3-(cyclopropylamino)pyrrolidin-1-yl]quinoxalin-2-yl]-2,4-dimethyl-1,3-benzoxazol-5-ol]
6.00 to 7.00 | 6.00 to 7.00 | 6.00 to 7.00 | 6.00 to 7.00 | CNC1CCN(c2cnc3nc(-c4cc5cn(C)nc5c(C)c4O)ccc3n2)C1 (stereo not shown) [Compound 192, 2,7-dimethyl-5-{2-[3-(methylamino)337pyrrolidine-1-yl]pyrido[2,3-b]pyrazin-6-yl}indazol-6-ol]
> 7.00 | 6.00 to 7.00 | 6.00 to 7.00 | 6.00 to 7.00 | CNC1CCN(c2cnc3nc(-c4cc5cn(C)nc5c(C)c4O)cc(Cl)c3n2)C1 (stereo not shown) [Compound 193, 5-{8-chloro-2-[3-(methylamino)355pyrrolidine-1-yl]pyrido[2,3-b]pyrazin-6-yl}-2,7-dimethylindazol-6-ol]
5.00 to 6.00 | 5.00 to 6.00 | 5.00 to 6.00 | < 5.00 | CNC1CCN(c2cnc3nc(-c4cc5cn(C)nc5c(C)c4O)cc(OC)c3n2)C1 (stereo not shown) [Compound 194, 5-{8-methoxy-2-[3-(methylamino)360pyrrolidine-1-yl]pyrido[2,3-b]pyrazin-6-yl}-2,7-dimethylindazol-6-ol]
6.00 to 7.00 | 5.00 to 6.00 | 5.00 to 6.00 | < 5.00 | Cc1c(O)c(-c2ccc3nc(N4C[C@@H](C)N[C@@H](C)C4)cnc3n2)cc2cn(C)nc12 [Compound 195, 5-{2-[(3R,5S)-3,5-dimethylpiperazin-1-yl]pyrido[2,3-b]pyrazin-6-yl}-2,7-dimethylindazol-6-ol]
6.00 to 7.00 | 6.00 to 7.00 | 6.00 to 7.00 | 6.00 to 7.00 | Cc1c(O)c(-c2ccc3nc(N4CCNCC4)cnc3n2)cc2cn(C)nc12 [Compound 197, 2,7-dimethyl-5-[2-(piperazin-1-yl)pyrido[2,3-b]pyrazin-6-yl]indazol-6-ol]

The next lines start with the compound.

Compound | pIC50 (HiBiT-tagged MYB protein) | pIC50 (HiBiT-tagged HTT protein) | pIC50 (Target C) | pIC50 (Target C mRNA)
CNC1CCN(c2cnc3nc(-c4cc(F)c5nc(C)cn5c4)ccc3c2)C1 (stereo not shown) [Compound 100, 1-(7-{8-fluoro-2-methylimidazo[1,2-a]pyridin-6-yl}-1,8-naphthyridin-3-yl)-N-methylpyrrolidin-3-amine] | > 7.00 | 6.00 to 7.00 | 6.00 to 7.00 | 6.00 to 7.00
Cn1cc2cc(-c3cnc4nc(N5CCNCC5)cc(Cl)c4c3)cc(F)c2n1 [Compound 101, 4-chloro-6-(7-fluoro-2-methyl-2H-indazol-5-yl)-2-(piperazin-1-yl)-1,8-naphthyridine] | > 7.00 | 5.00 to 6.00 | 5.00 to 6.00 | < 5.00
Cn1cc2cc(-c3cc(Cl)c4cc(N5CCNCC5)cnc4n3)c(O)cc2n1 [Compound 102, 5-[4-chloro-6-(piperazin-1-yl)-1,8-naphthyridin-2-yl]-2-methylindazol-6-ol] | > 7.00 | 6.00 to 7.00 | 6.00 to 7.00 | 5.00 to 6.00
Cn1cc2cc(-c3cc(Cl)c4cc(N5CCNCC5)cnc4n3)cc(F)c2n1 [Compound 103] | > 7.00 | 6.00 to 7.00 | 6.00 to 7.00 | 5.00 to 6.00
Cc1c(O)c(-c2cc(Cl)c3cc(N4CCNCC4)cnc3n2)cc2cn(C)nc12 [Compound 154, 5-[4-chloro-6-(piperazin-1-yl)-1,8-naphthyridin-2-yl]-2,7-dimethylindazol-6-ol] | > 7.00 | 6.00 to 7.00 | 6.00 to 7.00 | 5.00 to 6.00
Cn1cc2cc(-c3cc(Cl)c4cc(N5CCNCC5)cnc4n3)c(O)c(F)c2n1 [Compound 155, 5-[4-chloro-6-(piperazin-1-yl)-1,8-naphthyridin-2-yl]-7-fluoro-2-methylindazol-6-ol] | > 7.00 | > 7.00 | 6.00 to 7.00 | 6.00 to 7.00
Cc1c(O)c(-c2ncc3cc(N4CC[C@@H](N)C4)cnc3n2)cc2cn(C)nc12 [Compound 159, (R)-5-(6-(3-aminopyrrolidin-1-yl)pyrido[2,3-d]pyrimidin-2-yl)-2,7-dimethyl-2H-indazol-6-ol 2,2,2-trifluoroacetate] | > 7.00 | > 7.00 | 6.00 to 7.00 | 6.00 to 7.00
Cc1c(O)c(-c2ncc3cc(N4CC[C@H](N)C4)cnc3n2)cc2cn(C)nc12 [Compound 160, (S)-5-(6-(3-aminopyrrolidin-1-yl)pyrido[2,3-d]pyrimidin-2-yl)-2,7-dimethyl-2H-indazol-6-ol 2,2,2-trifluoroacetate] | > 7.00 | > 7.00 | 6.00 to 7.00 | 5.00 to 6.00
CNC1CCN(c2cnc3nc(-c4cc5cn(C)nc5c(C)c4O)nc(OC)c3c2)C1 (stereo not shown) [Compound 161, 5-{4-methoxy-6-[3-(methylamino)pyrrolidin-1-yl]pyrido[2,3-d]pyrimidin-2-yl}-2,7-dimethylindazol-6-ol] | > 7.00 | 6.00 to 7.00 | 6.00 to 7.00 | 5.00 to 6.00
COc1nc(-c2cc3cn(C)nc3c(C)c2O)nc2ncc(N3CCNCC3)cc12 [Compound 162, 5-[4-methoxy-6-(piperazin-1-yl)pyrido[2,3-d]pyrimidin-2-yl]-2,7-dimethylindazol-6-ol] | > 7.00 | 6.00 to 7.00 | 6.00 to 7.00 | 5.00 to 6.00
COc1nc(-c2cc3cn(C)nc3c(C)c2O)nc2ncc(N3CCC(N(C)C)CC3)cc12 [Compound 163, 5-{6-[4-(dimethylamino)piperidin-1-yl]-4-methoxypyrido[2,3-d]pyrimidin-2-yl}-2,7-dimethylindazol-6-ol] | 6.00 to 7.00 | 5.00 to 6.00 | < 5.00 | < 5.00
Cn1cc2cc(-c3cnc4cc(N5CCC(NC6CC6)C5)ccc4n3)c(O)c(F)c2n1 (stereo not shown) [Compound 175, 5-[6-[3-(cyclopropylamino)pyrrolidin-1-yl]quinoxalin-2-yl]-7-fluoro-2-methyl-indazol-6-ol] | > 7.00 | > 7.00 | 6.00 to 7.00 | 6.00 to 7.00
